“Also recorded” adds a separate entry of the source.
What was measured:
PRMT3 = PRMT3 (Homo sapiens, UniProt O60678); assay: biochemical
SUV39H2 = SUV39H2 (Homo sapiens, UniProt Q9H5I1); assay: Methyltransferase profiling; format: biochemical
PRMT1 = PRMT1 (Homo sapiens, UniProt Q99873); assay: Methyltransferase profiling; format: biochemical
PRMT4 = target: T1, PRMT4 (Homo sapiens, UniProt Q86X55); assay: Methyltransferase profiling; format: biochemical
T1 sequence (Q86X55 1-608): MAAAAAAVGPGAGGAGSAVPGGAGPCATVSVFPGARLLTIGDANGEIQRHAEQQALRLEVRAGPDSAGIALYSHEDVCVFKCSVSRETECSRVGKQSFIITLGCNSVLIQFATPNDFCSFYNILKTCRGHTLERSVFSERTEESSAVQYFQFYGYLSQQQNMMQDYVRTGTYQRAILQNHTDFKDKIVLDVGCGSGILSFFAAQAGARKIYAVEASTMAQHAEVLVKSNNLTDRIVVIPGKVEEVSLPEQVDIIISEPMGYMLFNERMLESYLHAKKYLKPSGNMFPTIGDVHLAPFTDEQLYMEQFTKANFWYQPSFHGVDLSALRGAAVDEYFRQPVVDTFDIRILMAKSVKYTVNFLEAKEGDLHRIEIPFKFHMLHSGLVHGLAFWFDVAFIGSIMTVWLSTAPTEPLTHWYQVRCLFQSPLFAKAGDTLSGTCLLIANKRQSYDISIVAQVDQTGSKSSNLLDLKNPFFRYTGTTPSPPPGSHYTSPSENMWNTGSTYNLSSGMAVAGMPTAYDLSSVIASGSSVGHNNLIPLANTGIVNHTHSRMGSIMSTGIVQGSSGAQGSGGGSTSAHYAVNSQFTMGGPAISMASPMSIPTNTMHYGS

PRMT5-MEP50 complex = PRMT5-MEP50 complex (Homo sapiens, UniProt O14744); assay: Methyltransferase profiling; format: biochemical
Chain of PRMT5-MEP50 complex (O14744 whole entry): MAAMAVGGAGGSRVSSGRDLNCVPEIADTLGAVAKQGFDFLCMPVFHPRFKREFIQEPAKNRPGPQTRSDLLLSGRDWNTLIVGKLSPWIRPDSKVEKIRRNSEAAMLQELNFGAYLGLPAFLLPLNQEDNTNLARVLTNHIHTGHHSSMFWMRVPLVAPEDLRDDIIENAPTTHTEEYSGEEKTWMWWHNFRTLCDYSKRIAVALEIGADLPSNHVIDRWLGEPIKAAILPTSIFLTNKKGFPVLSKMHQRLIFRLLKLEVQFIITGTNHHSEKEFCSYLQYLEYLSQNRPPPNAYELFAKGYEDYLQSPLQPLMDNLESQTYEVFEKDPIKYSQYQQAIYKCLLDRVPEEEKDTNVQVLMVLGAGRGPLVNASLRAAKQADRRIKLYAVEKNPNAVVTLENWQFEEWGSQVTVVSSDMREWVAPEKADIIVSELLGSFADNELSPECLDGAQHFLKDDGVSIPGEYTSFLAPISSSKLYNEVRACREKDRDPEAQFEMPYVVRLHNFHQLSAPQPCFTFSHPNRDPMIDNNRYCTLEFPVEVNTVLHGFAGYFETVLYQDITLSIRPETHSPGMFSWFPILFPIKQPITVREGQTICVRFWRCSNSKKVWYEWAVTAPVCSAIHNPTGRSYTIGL
Chain of PRMT5-MEP50 complex (Q9BQA1 whole entry partner): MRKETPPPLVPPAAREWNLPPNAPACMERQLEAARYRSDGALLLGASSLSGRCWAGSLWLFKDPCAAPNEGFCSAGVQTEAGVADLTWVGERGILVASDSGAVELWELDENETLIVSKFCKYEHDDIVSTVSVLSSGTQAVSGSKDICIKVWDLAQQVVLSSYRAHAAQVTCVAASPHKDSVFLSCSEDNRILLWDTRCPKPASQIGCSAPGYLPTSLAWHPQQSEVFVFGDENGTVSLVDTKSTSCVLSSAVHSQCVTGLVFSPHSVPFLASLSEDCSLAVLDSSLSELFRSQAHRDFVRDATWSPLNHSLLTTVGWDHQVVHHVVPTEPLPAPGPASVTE

PRMT6 = PRMT6 (Homo sapiens, UniProt Q96LA8); assay: Methyltransferase profiling; format: biochemical
Chain of PRMT6 (Q96LA8 whole entry): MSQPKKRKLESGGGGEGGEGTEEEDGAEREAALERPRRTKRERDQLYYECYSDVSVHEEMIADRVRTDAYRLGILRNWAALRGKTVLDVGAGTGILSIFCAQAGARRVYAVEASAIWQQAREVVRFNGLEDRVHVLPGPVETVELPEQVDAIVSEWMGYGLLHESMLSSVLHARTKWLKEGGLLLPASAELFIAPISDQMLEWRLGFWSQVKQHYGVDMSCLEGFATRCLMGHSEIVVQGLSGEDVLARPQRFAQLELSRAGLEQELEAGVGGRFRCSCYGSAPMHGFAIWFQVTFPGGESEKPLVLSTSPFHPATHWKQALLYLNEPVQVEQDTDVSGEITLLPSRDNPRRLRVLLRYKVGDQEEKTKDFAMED

[1] = tested on: MLL-AF9 transformed cells
E2A-HLF cells = settings: DOT1L-independent negative control line
[2] = tested on: MLL-AF9 transformed cells; settings: various doses
PRMT5 Alone = PRMT5 Alone (Homo sapiens, UniProt O14744); assay: biochemical
Chain of PRMT5 Alone (O14744 whole entry): as the sequence (O14744 whole entry) above

H3K79 methylation = assay: Western blot analysis of H3K79 methylation in MLL-AF9 cells
[3] = tested on: H3K4, H3K27, H3K36, H4K20 methylation; assay: Western blot analysis of other histone methylation marks in MLL-AF9 cells
GST-DOT1L [4] = target: T2, GST-DOT1L (Homo sapiens, UniProt Q8TEK3); assay: Saturation transfer difference; format: binding; settings: SAH added in five-fold molar excess
T2 sequence (Q8TEK3 1-420): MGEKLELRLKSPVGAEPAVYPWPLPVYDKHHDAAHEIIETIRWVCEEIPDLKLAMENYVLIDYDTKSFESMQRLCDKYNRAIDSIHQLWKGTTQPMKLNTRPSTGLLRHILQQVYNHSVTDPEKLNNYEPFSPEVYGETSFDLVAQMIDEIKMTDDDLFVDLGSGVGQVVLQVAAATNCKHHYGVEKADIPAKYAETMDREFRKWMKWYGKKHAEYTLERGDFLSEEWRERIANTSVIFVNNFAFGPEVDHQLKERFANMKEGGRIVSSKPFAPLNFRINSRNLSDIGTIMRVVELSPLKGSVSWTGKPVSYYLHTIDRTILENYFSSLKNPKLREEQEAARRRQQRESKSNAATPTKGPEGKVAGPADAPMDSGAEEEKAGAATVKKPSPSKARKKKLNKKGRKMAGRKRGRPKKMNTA

[5] = tested on: panel of Methyltransferases; assay: Methyltransferase profiling; format: biochemical; settings: omitted from Table 2
GST-DOT1L [6] = target: T2, GST-DOT1L; assay: In vitro radio-isotope labeling DOT1L histone methyltransferase; settings: ratio of IC50 values, initial radio-isotope assays

Chain of PRMT1 (Q99873 whole entry): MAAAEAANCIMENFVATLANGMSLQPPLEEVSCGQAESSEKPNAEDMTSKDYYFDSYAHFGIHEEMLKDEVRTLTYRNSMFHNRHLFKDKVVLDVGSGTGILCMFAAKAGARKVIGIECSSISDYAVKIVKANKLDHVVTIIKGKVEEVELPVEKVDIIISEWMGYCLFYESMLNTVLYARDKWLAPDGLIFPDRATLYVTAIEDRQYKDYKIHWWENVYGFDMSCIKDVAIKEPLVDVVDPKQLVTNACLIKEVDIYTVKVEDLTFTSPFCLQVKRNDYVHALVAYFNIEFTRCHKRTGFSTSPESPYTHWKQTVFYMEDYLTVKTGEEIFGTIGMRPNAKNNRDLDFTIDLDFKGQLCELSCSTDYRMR
Chain of PRMT3 (O60678 whole entry): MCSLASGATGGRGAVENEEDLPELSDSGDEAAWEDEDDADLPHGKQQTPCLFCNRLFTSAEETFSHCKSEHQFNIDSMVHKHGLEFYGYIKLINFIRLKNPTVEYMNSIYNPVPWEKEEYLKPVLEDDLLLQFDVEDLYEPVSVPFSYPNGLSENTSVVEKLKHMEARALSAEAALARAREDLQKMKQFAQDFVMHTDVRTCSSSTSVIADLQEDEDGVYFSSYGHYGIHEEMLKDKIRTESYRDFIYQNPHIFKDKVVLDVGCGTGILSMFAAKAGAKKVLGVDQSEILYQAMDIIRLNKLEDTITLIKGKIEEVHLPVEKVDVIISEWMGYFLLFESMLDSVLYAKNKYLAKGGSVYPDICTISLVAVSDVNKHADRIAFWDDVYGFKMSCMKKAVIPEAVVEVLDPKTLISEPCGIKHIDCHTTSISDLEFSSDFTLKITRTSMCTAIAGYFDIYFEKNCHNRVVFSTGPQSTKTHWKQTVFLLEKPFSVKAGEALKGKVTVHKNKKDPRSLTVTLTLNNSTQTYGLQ
Chain of SUV39H2 (Q9H5I1 whole entry): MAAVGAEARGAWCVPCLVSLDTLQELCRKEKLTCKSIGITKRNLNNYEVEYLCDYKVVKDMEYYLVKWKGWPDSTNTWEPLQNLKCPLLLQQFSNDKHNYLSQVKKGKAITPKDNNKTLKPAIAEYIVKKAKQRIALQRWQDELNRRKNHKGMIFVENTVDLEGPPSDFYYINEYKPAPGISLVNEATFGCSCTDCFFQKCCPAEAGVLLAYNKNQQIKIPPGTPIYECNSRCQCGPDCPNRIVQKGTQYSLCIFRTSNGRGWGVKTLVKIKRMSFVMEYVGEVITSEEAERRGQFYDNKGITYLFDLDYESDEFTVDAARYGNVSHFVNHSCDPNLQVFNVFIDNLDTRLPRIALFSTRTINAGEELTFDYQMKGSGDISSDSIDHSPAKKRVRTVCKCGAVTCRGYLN

| Structure (SMILES) | IC50 (PRMT3) | IC50 (SUV39H2) | IC50 (PRMT1) | IC50 (PRMT4) | IC50 (PRMT5-MEP50 complex) | IC50 (PRMT6) | other results |
| --- | --- | --- | --- | --- | --- | --- | --- |
| Nc1ncnc2c1ncn2[C@@H]1O[C@H](CSCC[C@H](N)C(=O)O)[C@@H](O)[C@H]1O [SAH, S-adenosylhomocysteine, reference compound] | 1.44 µM |  |  |  |  |  |  |
| CC(C)(C)c1ccc(NC(=O)c2ncn(CC(=O)NCCn3ccc4c(N)ncnc43)n2)cc1 [Compound 25, 1-(2-((2-(4-amino-7H-pyrrolo[2,3-d]pyrimidin-7-yl)ethyl)amino)-2-oxoethyl)-N-(4-(tert-butyl)phenyl)-1H-1,2,4-triazole-3-carboxamide] | 149 µM | > 250 µM | > 250 µM | > 250 µM | > 250 µM | > 250 µM | cell growth inhibition of MLL-AF9 cells ([1]; day 11 at 30 μM): complete cell growth inhibition; killing of MLL-AF9 cells versus E2A-HLF cells ([1]; murine established leukemia cell lines): selectively killed MLL-AF9; effect on the growth of E2A-HLF cells (E2A-HLF cells): without showing any effect on the growth; cell differentiation, Wright-Giemsa stain [2]: dose-dependent cell differentiation; IC50 (PRMT5 Alone): 187 µM; cellular H3K79 methylation (H3K79 methylation; day 6): dose-dependent inhibition; cellular H3K79 methylation (H3K79 methylation; day 9, 30 μM): complete inhibition; cellular H3K79 methylation (H3K79 methylation; day 9, 10 and 3 μM): significant decrease; H3K4me3 and H4K20me2 ([3]; day 6): no significant changes |
| Nc1ncnc2c1ncn2[C@@H]1O[C@H](CNCc2ccc(OCC(=O)Nc3ccccn3)cc2)[C@@H](O)[C@H]1O [Compound 2] |  |  |  |  |  |  | competitive STD NMR with SAH (GST-DOT1L [4]): competed off by SAH; cellular H3K79 methylation (H3K79 methylation; time course of 3, 6 and 9 days): inhibits cellular H3K79 dimethylation; also recorded: reduced; H3K4, H3K27, and H3K36 trimethylation states [3]: not changed |
| CC(C)(C)c1ccc(NC(=O)c2ncn(CC(=O)NCc3ccc4c(N)nccc4c3)n2)cc1 [Compound 24, 1-(2-(((1-aminoisoquinolin-6-yl)methyl)amino)-2-oxoethyl)-N-(4-(tert-butyl)phenyl)-1H-1,2,4-triazole-3-carboxamide] | 41.1 µM | > 250 µM | > 250 µM | > 250 µM | > 250 µM | > 250 µM | IC50 (PRMT5 Alone): 227 µM |
| CC(C)(C)c1ccc(NC(=O)c2ncn(CC(=O)NCc3ccc4c(c3)OCO4)n2)cc1 [Compound 22, 1-(2-((benzo[d][1,3]dioxol-5-ylmethyl)amino)-2-oxoethyl)-N-(4-(tert-butyl)phenyl)-1H-1,2,4-triazole-3-carboxamide] |  |  |  |  |  |  | activity versus all MTs tested in the profiling assays [5]: inactive |
| CC(C)(C)c1ccc(NC(=O)c2ncn(CC(=O)NCc3ccc4[nH]ncc4c3)n2)cc1 [Compound 23, 1-(2-(((1H-indazol-5-yl)methyl)amino)-2-oxoethyl)-N-(4-(tert-butyl)phenyl)-1H-1,2,4-triazole-3-carboxamide] |  | > 250 µM |  |  |  |  |  |
| Nc1nccc2cc(CNC(=O)Cn3cnc(C(=O)NC4CCCCC4)n3)ccc12 [Compound 28, 1-(2-(((1-aminoisoquinolin-6-yl)methyl)amino)-2-oxoethyl)-N-cyclohexyl-1H-1,2,4-triazole-3-carboxamide] |  |  | > 250 µM | > 250 µM | > 250 µM | > 250 µM |  |
| Cc1ccc(NC(=O)c2ncn(CC(=O)NCCn3ccc4c(N)ncnc43)n2)cc1C [Compound 20, 1-(2-((2-(4-amino-7H-pyrrolo[2,3-d]pyrimidin-7-yl)ethyl)amino)-2-oxoethyl)-N-(3,4-dimethylphenyl)-1H-1,2,4-triazole-3-carboxamide] |  | > 250 µM |  |  |  |  |  |
| Cc1ccc(NC(=O)c2ncn(CC(=O)NCc3ccc4c(N)nccc4c3)n2)cc1C [Compound 19, 1-(2-(((1-aminoisoquinolin-6-yl)methyl)amino)-2-oxoethyl)-N-(3,4-dimethylphenyl)-1H-1,2,4-triazole-3-carboxamide] |  |  | > 250 µM | > 250 µM | > 250 µM | > 250 µM |  |
| Cc1ccc(NC(=O)c2ncn(CC(=O)NCc3ccc4c(c3)OCO4)n2)cc1C [Compound 9, 1-(2-((benzo[d][1,3]dioxol-5-ylmethyl)amino)-2-oxoethyl)-N-(3,4-dimethylphenyl)-1H-1,2,4-triazole-3-carboxamide] |  |  |  |  |  |  | fold better activity than 8 (GST-DOT1L [6]): 1.5 fold |

From article PMC7646624 (European journal of medicinal chemistry, 2020)
